From ChEMBL document CHEMBL1137622, “8-Hydroxy-3,4-dihydropyrrolo[1,2-a]pyrazine-1(2H)-one HIV-1 integrase inhibitors” (Bioorg Med Chem Lett, 2007)
Calls of active or inactive are those of the source. The rule behind the calls is not given here.

Columns and labels:
[1] = molecular target: Human immunodeficiency virus type 1 integrase (Human immunodeficiency virus 1, UniProt Q7ZJM1); test: Inhibition of recombinant HIV1 integrase strand transfer activity
[2] = system: Human immunodeficiency virus 1; test: Antiviral activity against HIV1 3B infected in human MT4 cells after 24 hrs by p24 ELISA; type: functional; details: Human immunodeficiency virus 1, 3B, MT4, 24 h; read-out: CIC95
MT4 = test: Cytotoxicity against human MT4 cells at concentrations up to 20 uM; type: cell-based
[3] = system: Human immunodeficiency virus 1; test: Antiviral activity against HIV1 at concentrations upto 20 uM; type: functional, organism-based
[4] = Half life in rat at 2 mg/kg, iv; type: ADME, organism-based; set-up: dose 2 mg/kg, route intravenous; details: in vivo
[5] = Clearance in rat at 2 mg/kg, iv; type: ADME, organism-based; set-up: dose 2 mg/kg, route intravenous; details: in vivo

Sequence of Human immunodeficiency virus type 1 integrase (Q7ZJM1 whole entry): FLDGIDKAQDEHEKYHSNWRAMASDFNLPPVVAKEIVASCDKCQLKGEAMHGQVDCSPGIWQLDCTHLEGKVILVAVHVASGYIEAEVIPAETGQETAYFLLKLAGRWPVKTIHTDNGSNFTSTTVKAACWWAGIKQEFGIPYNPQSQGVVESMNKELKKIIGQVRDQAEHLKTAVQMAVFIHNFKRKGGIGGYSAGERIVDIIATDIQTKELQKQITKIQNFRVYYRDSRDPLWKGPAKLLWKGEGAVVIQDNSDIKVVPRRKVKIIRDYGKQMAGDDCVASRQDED
Description for physchem: Dissociation constant, pKa of the compound

Compound	IC50 [1] [nM]	IC95 [2] [nM]	Activity (MT4)	Activity [3]	pKa (physchem)	half-life [4] [min]	clearance [5] [mL/min/kg]
CNC(=O)c1cn2c(c1O)C(=O)N(Cc1ccc(F)cc1)CC2	80	10000					
CNC(=O)c1cn2c(c1O)C(=O)N(Cc1ccc(Cl)c(Cl)c1)CC2	40	1250					
CCOC(=O)c1cn2c(c1O)C(=O)N(Cc1cccc(Cl)c1)CC2	30	1250	Non-toxic				
O=C(O)c1cn2c(c1O)C(=O)N(Cc1cccc(Cl)c1)CC2	10	> 20000		inactive	3.8		
CCOC(=O)c1cn2c(c1O)C(=O)N(Cc1ccc(F)c(Cl)c1)CC2	20	940	Non-toxic				
O=C(O)c1cn2c(c1O)C(=O)N(Cc1ccccc1)CC2	80	> 20000		inactive	3.8		
CN1CCc2c(c(O)c3n2CCN(Cc2ccc(F)cc2)C3=O)C1=O	< 10	390					
CCOC(=O)c1cn2c(c1O)C(=O)N(Cc1ccc(F)cc1)CC2	40	3230	Non-toxic				
CCOC(=O)c1cn2c(c1O)C(=O)N(Cc1ccccc1)CC2	220	20000	Non-toxic				
CCOC(=O)c1cn2c(c1O)C(=O)N(Cc1ccc(F)cc1)CCC2	> 5000						
CCOC(=O)c1cn2c(c1O)C(=O)N(Cc1ccc(Cl)c(Cl)c1)CC2	10	310	Non-toxic			30	30
CNC(=O)c1cn2c(c1O)C(=O)N(Cc1ccc(Cl)cc1)CC2	60	2500					
CCOC(=O)c1cn2c(c1O)C(=O)N(Cc1cccc(F)c1)CC2	110	9380	Non-toxic				
CCOC(=O)c1cn2c(c1O)C(=O)N(Cc1ccc(Cl)cc1)CC2	40	1020	Non-toxic				
CN1CCn2c3c(c(O)c2C1=O)C(=O)N(Cc1ccc(F)cc1)CC3	< 10	160					
O=C1c2c(O)c3n(c2CCN1Cc1ccc(F)cc1)CCN(Cc1ccc(F)cc1)C3=O	< 10	70					
